Among the data in patent publication US20200055839A1 (priority 2017, published 2020) are EC50 values, retold here.

For orientation: EC50 means the concentration giving half of the maximal effect. A high value points to a need for much substance.

SMILES strings stand for the structures.

For one assay, the system named is NL-RLuc virus. Put plainly: Inhibition of HIV replication (NL-RLuc virus, luciferase readout in MT-2 cells). In kind it is cell-based. The note with it: Human immunodeficiency virus 1, MT2, 120 h, MT-2 cells infected with NL-RLuc virus, 5 days of incubation, 10% FBS, at least 2 experiments. The gist of the method:
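EC50 derived via median effect equation from at least 2 experiments, using luciferase expression as virus-growth readout. Replication-competent NL-RLuc reporter virus (nef partly replaced by Renilla luciferase) infected MT-2 cells with serial compound dilutions; 5-day incubation in RPMI 1640 plus 10% FBS.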
For the compound `Cc1nc(-c2cnc(C)c([C@H](OC(C)(C)C)C(=O)O)c2N2CCC(C)(C)CC2)ncc1OCCc1ccc(F)cc1` [Example 245, (S)-2-(tert-Butoxy)-2-(4-(4,4-dimethylpiperidin-1-yl)-5-(5-(4-fluorophenethoxy)-4-methylpyrimidin-2-yl)-2-methylpyridin-3-yl)acetic acid], the EC50 turned out to be 2 nM. Still for that read-out and setting: the value for `Cc1ncc(-c2cnc(OCCC(C)C)c(F)c2)c(N2CCC(C)(C)CC2)c1[C@H](OC(C)(C)C)C(=O)O` [Example 368, (2S)-2-(tert-butoxy)-2-[4-(4,4-dimethylpiperidin-1-yl)-5′-fluoro-6-methyl-6′-(3-methylbutoxy)-[3,3′-bipyridine]-5-yl]acetic acid] was 1 nM.

Take `Cc1ncc(-c2ccc(O[C@H](C)C(C)C)cc2)c(N2CCC(C)(C)CC2)c1[C@H](OC(C)(C)C)C(=O)O` [Example 362, (2S)-2-(tert-butoxy)-2-[4-(4,4-dimethylpiperidin-1-yl)-2-methyl-5-(4-{[(2R)-3-methylbutan-2-yl]oxy}phenyl)pyridin-3-yl]acetic acid]: the response was half-maximal at 8 nM (EC50). Still for that read-out and setting: the value for `Cc1cccc(-c2cnc(C)c([C@H](OC(C)(C)C)C(=O)O)c2N2CCC(C)(C)CC2)c1F` [Example 163, (2S)-2-(tert-Butoxy)-2-[4-(4,4-dimethylpiperidin-1-yl)-5-(2-fluoro-3-methylphenyl)-2-methylpyridin-3-yl]acetic acid] was 6 nM; that for `Cc1nc(N)c(-c2cc(F)c(OCCc3ccc(F)cc3)c(F)c2)c(N2CCC(C)(C)CC2)c1[C@H](OC(C)(C)C)C(=O)O` [Example 60, (S)-2-(6-Amino-5-(3,5-difluoro-4-(4-fluorophenethoxy)phenyl)-4-(4,4-dimethylpiperidin-1-yl)-2-methylpyridin-3-yl)-2-(tert-butoxy)acetic acid] was 25 nM; that for `Cc1cc(F)ccc1CCOc1ccc(-c2cnc(C)c([C@H](OC(C)(C)C)C(=O)O)c2N2CCC(C)(C)CC2)nc1` [Example 286, (S)-2-(tert-Butoxy)-2-(4′-(4,4-dimethylpiperidin-1-yl)-5-(4-fluoro-2-methylphenethoxy)-6′-methyl-[2, 3′-bipyridin]-5′-yl)acetic acid] was 1 nM.

The compound `Cc1ncc(-c2cccnc2)c(N2CCC(C)(C)CC2)c1[C@H](OC(C)(C)C)C(=O)O` [Example 155, (2S)-2-(tert-Butoxy)-2-[4-(4,4-dimethylpiperidin-1-yl)-6-methyl-[3, 3′-bipyridine]-5-yl]acetic acid] showed an EC50 of 11 nM. Still for that read-out and setting: the result for `Cc1cccc(Cl)c1CCOc1ccc(-c2cnc(C)c([C@H](OC(C)(C)C)C(=O)O)c2N2CCC(C)(C)CC2)cn1` [Example 412, (S)-2-(tert-Butoxy)-2-(6′-(2-chloro-6-methylphenethoxy)-4-(4,4-dimethylpiperidin-1-yl)-6-methyl-[3, 3′-bipyridin]-5-yl)acetic acid] reads 4 nM; that for `CCC(C)(C)O[C@H](C(=O)O)c1c(C)ncc(-c2ccc(OCCc3ccc(F)cc3)cn2)c1N1CCC(C)(C)CC1` [Example 246, (S)-2-(4′-(4,4-Dimethylpiperidin-1-yl)-5-(4-fluorophenethoxy)-6′-methyl-[2, 3′-bipyridin]-5′-yl)-2-(tert-pentyloxy)acetic acid], 0.4 nM; that for `CC1(C)CCN(c2c(-c3ccc(OCCc4ccc(F)cc4)cc3)c(N)nc(Cl)c2[C@H](OC(C)(C)C)C(=O)O)CC1` [Example 206, (S)-2-(6-Amino-2-chloro-4-(4,4-dimethylpiperidin-1-yl)-5-(4-(4-fluorophenethoxy)phenyl)pyridin-3-yl)-2-(tert-butoxy)acetic acid], 2 nM. `Cc1ncc(-c2cccc(Cl)c2F)c(N2CCC(C)(C)CC2)c1[C@H](OC(C)(C)C)C(=O)O` [Example 145, (2S)-2-(tert-Butoxy)-2-[5-(3-chloro-2-fluorophenyl)-4-(4,4-dimethylpiperidin-1-yl)-2-methylpyridin-3-yl]acetic acid] displayed an EC50 of 5 nM.

As for `Cc1ncc(-c2ccc(/C=C\C(C)C)nc2)c(N2CCC(C)(C)CC2)c1[C@H](OC(C)(C)C)C(=O)O` [Example 422, (S,Z)-2-(tert-Butoxy)-2-(4-(4,4-dimethylpiperidin-1-yl)-6-methyl-6′-(3-methylbut-1-en-1-yl)-[3, 3′-bipyridin]-5-yl)acetic acid], the response was half-maximal at 10 nM (EC50). `Cc1nc(Nc2ccnc(C(=O)O)c2)c(-c2ccc(OCCc3ccc(F)cc3)cc2)c(N2CCC(C)(C)CC2)c1[C@H](OC(C)(C)C)C(=O)O` [Example 102, (S)-4-((5-(tert-Butoxy(carboxy)methyl)-4-(4,4-dimethylpiperidin-1-yl)-3-(4-(4-fluorophenethoxy)phenyl)-6-methylpyridin-2-yl)amino)picolinic acid] gave an EC50 of 50 nM. In turn, `Cc1ncc(-c2ccc(OCCc3cc(F)cc(F)c3)cn2)c(N2CCC(C)(C)CC2)c1[C@H](OC(C)(C)C)C(=O)O` [Example 323, (2S)-2-(tert-butoxy)-2-{5-[2-(3,5-difluorophenyl)ethoxy]-4′-(4,4-dimethylpiperidin-1-yl)-6′-methyl-[2,3′-bipyridine]-5′-yl}acetic acid] showed an EC50 of 1 nM. On the same count and under the same terms, the value for `Cc1nc(Nc2cc(F)ccn2)c(-c2ccc(OCCc3ccc(F)cc3)cc2)c(N2CCC(C)(C)CC2)c1[C@H](OC(C)(C)C)C(=O)O` [Example 81, (S)-2-(tert-Butoxy)-2-(4-(4,4-dimethylpiperidin-1-yl)-5-(4-(4-fluorophenethoxy)phenyl)-6-((4-fluoropyridin-2-yl)amino)-2-methylpyridin-3-yl)acetic acid] was 11 nM; that for `Cc1ncc(-c2ccc(OCCc3ccccc3)cn2)c(N2CCC(C)(C)CC2)c1[C@H](OC(C)(C)C)C(=O)O` [Example 285, (S)-2-(tert-Butoxy)-2-(4′-(4,4-dimethylpiperidin-1-yl)-6′-methyl-5-phenethoxy-[2, 3′-bipyridin]-5′-yl)acetic acid] was 0.6 nM. Same read-out and setting: the value for `Cc1ncc(-c2ccccc2)c(N2CCC(C)(C)CC2)c1[C@H](OC(C)(C)C)C(=O)O` [Example 134, (2S)-2-(tert-Butoxy)-2-[4-(4,4-dimethylpiperidin-1-yl)-2-methyl-5-phenylpyridin-3-yl]acetic acid] was 7 nM; that for `COCCNc1nc(C)c([C@H](OC(C)(C)C)C(=O)O)c(N2CCC(C)(C)CC2)c1-c1ccc(OCCc2ccc(F)cc2)cc1` [Example 27, (S)-2-(tert-Butoxy)-2-(4-(4,4-dimethylpiperidin-1-yl)-5-(4-(4-fluorophenethoxy)phenyl)-6-((2-methoxyethyl)amino)-2-methylpyridin-3-yl)acetic acid] was 0.7 nM; that for `Cc1nc(-n2nc3c(c2N)CCC3)c(-c2ccc(OCCc3ccc(F)cc3)cc2)c(N2CCC(C)(C)CC2)c1[C@H](OC(C)(C)C)C(=O)O` [Example 76, (S)-2-(6-(3-Amino-5,6-dihydrocyclopenta[c]pyrazol-2(4H)-yl)-4-(4,4-dimethylpiperidin-1-yl)-5-(4-(4-fluorophenethoxy)phenyl)-2-methylpyridin-3-yl)-2-(tert-butoxy)acetic acid] was 4 nM. `CCCCOc1ccc(-c2cnc(C)c([C@H](OC(C)(C)C)C(=O)O)c2N2CCC(C)(C)CC2)nc1` [Example 313, (2S)-2-(tert-butoxy)-2-[5-butoxy-4′-(4,4-dimethylpiperidin-1-yl)-6′-methyl-[2,3′-bipyridine]-5′-yl]acetic acid]: the EC50 worked out at 1 nM. On the same count and under the same terms, the value for `Cc1ncc(-c2ccc(OCCc3ccc(F)cc3)cc2F)c(N2CCC(C)(C)CC2)c1[C@H](OC(C)(C)C)C(=O)O` [Example 123, (S)-2-(tert-Butoxy)-2-(4-(4,4-dimethylpiperidin-1-yl)-5-(2-fluoro-4-(4-fluorophenethoxy)phenyl)-2-methylpyridin-3-yl)acetic acid] was 2 nM; that for `Cc1nc(NCCn2cccn2)c(-c2ccc(OCCc3ccc(F)cc3)cc2)c(N2CCC(C)(C)CC2)c1[C@H](OC(C)(C)C)C(=O)O` [Example 33, (S)-2-(6-((2-(1H-Pyrazol-1-yl)ethyl)amino)-4-(4,4-dimethylpiperidin-1-yl)-5-(4-(4-fluorophenethoxy)phenyl)-2-methylpyridin-3-yl)-2-(tert-butoxy)acetic acid] was 2 nM; that for `COc1c(F)cc(-c2c(CN3CCC4(CCC4)CC3)nc(Cl)c([C@H](OC(C)(C)C)C(=O)O)c2N2CCC(C)(C)CC2)cc1F` [Example 204] was 1 nM. Compound `Cc1ncc(-c2cnc(OC[C@@H](C)c3ccccc3)c(F)c2)c(N2CCC(C)(C)CC2)c1[C@H](OC(C)(C)C)C(=O)O` [Example 388, (2S)-2-(tert-butoxy)-2-[4-(4,4-dimethylpiperidin-1-yl)-5′-fluoro-6-methyl-6′-[(2S)-2-phenylpropoxy]-[3,3′-bipyridine]-5-yl]acetic acid] yielded an EC50 of 3 nM. The same measure, in the same setting: the value for `Cc1nc(CN2CCC3(CCC3)CC2)c(-c2ccccc2)c(N2CCC(C)(C)CC2)c1[C@H](OC(C)(C)C)C(=O)O` [Example 190, (2S)-2-[6-({7-Azaspiro[3.5]nonan-7-yl}methyl)-4-(4,4-dimethylpiperidin-1-yl)-2-methyl-5-phenylpyridin-3-yl]-2-(tert-butoxy)acetic acid] was 3 nM. Still for that read-out and setting: the result for `COc1c(F)cc(-c2c(CO)nc(Cl)c([C@H](OC(C)(C)C)C(=O)O)c2N2CCC(C)(C)CC2)cc1F` [Example 205, (S)-2-(tert-Butoxy)-2-(2-chloro-5-(3,5-difluoro-4-methoxyphenyl)-4-(4,4-dimethylpiperidin-1-yl)-6-(hydroxymethyl)pyridin-3-yl)acetic acid] reads 6 nM.

The assay is the same for the next values; noted with them: MT-2 cells infected with NL-RLuc virus, 5 days of incubation, 10% FBS, at least 2 experiments.
For `Cc1nc(C(C)(C)O)c(-c2ccc(OCCc3ccc(F)cc3)c(F)c2)c(N2CCC(C)(C)CC2)c1[C@H](OC(C)(C)C)C(=O)O` (single isomer, unassigned) [Example 243], the EC50 came out at 7 nM.
